# Measured values: patent US20250127170A1, “TRIAZINE HERBICIDAL COMPOUNDS” (SYNGENTA CROP PROTECTION AG, priority 2021, published 2025)
# How the values were obtained:
# Format in all cases: in vivo
# Conditions in all cases: 312 h, evaluated after 13 days, 100=total damage to plant, 0=no damage to plant
# [1] = tested on: Amaranthus palmeri (AMAPA); assay: Pre-emergence biological efficacy
# Protocol: (§1) Seeds of weeds and/or crops were sown in standard soil in pots (Amaranthus palmeri (AMAPA), Lolium perenne (LOLPE), Euphorbia heterophylla (EPHHL), Ipomoea hederacea (IPOHE), Setaria faberi (SETFA), Echinochloa crus-galli (ECHCG)). After cultivation for one day under controlled conditions in a glasshouse (at 24/19° C., day/night; 16 hours light), the plants were sprayed with an aqueous spray solution derived from the formulation of the technical active ingredient in a small amount of acetone and a special solvent and emulsifier mixture referred to as IF50 (11.12% Emulsogen EL360™+44.44% N-methylpyrrolidone+44.44% Dowanol DPM glycol ether), to create a 50 g/l solution which was then diluted using 0.2% Genapol XO80 as diluent to give the desired final dose of test compound.
# (§2) The test plants were then grown under controlled conditions in the glasshouse (at 24/18° C., day/night; 15 hours light; 50% humidity) and watered twice daily. After 13 days the test was evaluated (100=total damage to plant; 0=no damage to plant).
# [2] = tested on: Amaranthus palmeri (AMAPA); assay: Post-emergence biological efficacy
# Protocol: as §1, with “Chenopodium album (CHEAL),” for “Lolium perenne (LOLPE),”, “(IPOHE), Eleusine indica (ELEIN), Lolium perenne (LOLPE), Digitaria sanguinalis (DIGSA),” for “(IPOHE),”, “14 days” for “one day”, “compound. The test plants were then grown under controlled conditions in the glasshouse (at 24/18° C., day/night; 15 hours light; 50% humidity) and watered twice daily. After 13 days the test was evaluated (100=total damage to plant; 0=no damage to plant).” for “compound.”
# [3] = tested on: Chenopodium album (CHEAL); assay: Post-emergence biological efficacy
# Protocol: as §1, with “Chenopodium album (CHEAL),” for “Lolium perenne (LOLPE),”, “(IPOHE), Eleusine indica (ELEIN), Lolium perenne (LOLPE), Digitaria sanguinalis (DIGSA),” for “(IPOHE),”, “14 days” for “one day”, “compound. The test plants were then grown under controlled conditions in the glasshouse (at 24/18° C., day/night; 15 hours light; 50% humidity) and watered twice daily. After 13 days the test was evaluated (100=total damage to plant; 0=no damage to plant).” for “compound.”
# [4] = tested on: Digitaria sanguinalis (DIGSA); assay: Post-emergence biological efficacy
# Protocol: as §1, with “Chenopodium album (CHEAL),” for “Lolium perenne (LOLPE),”, “(IPOHE), Eleusine indica (ELEIN), Lolium perenne (LOLPE), Digitaria sanguinalis (DIGSA),” for “(IPOHE),”, “14 days” for “one day”, “compound. The test plants were then grown under controlled conditions in the glasshouse (at 24/18° C., day/night; 15 hours light; 50% humidity) and watered twice daily. After 13 days the test was evaluated (100=total damage to plant; 0=no damage to plant).” for “compound.”
# [5] = tested on: Echinochloa crus-galli (ECHCG); assay: Post-emergence biological efficacy
# Protocol: as §1, with “Chenopodium album (CHEAL),” for “Lolium perenne (LOLPE),”, “(IPOHE), Eleusine indica (ELEIN), Lolium perenne (LOLPE), Digitaria sanguinalis (DIGSA),” for “(IPOHE),”, “14 days” for “one day”, “compound. The test plants were then grown under controlled conditions in the glasshouse (at 24/18° C., day/night; 15 hours light; 50% humidity) and watered twice daily. After 13 days the test was evaluated (100=total damage to plant; 0=no damage to plant).” for “compound.”
# Eleusine indica (ELEIN) = assay: Post-emergence biological efficacy
# Protocol: as §1, with “Chenopodium album (CHEAL),” for “Lolium perenne (LOLPE),”, “(IPOHE), Eleusine indica (ELEIN), Lolium perenne (LOLPE), Digitaria sanguinalis (DIGSA),” for “(IPOHE),”, “14 days” for “one day”, “compound. The test plants were then grown under controlled conditions in the glasshouse (at 24/18° C., day/night; 15 hours light; 50% humidity) and watered twice daily. After 13 days the test was evaluated (100=total damage to plant; 0=no damage to plant).” for “compound.”
# [6] = tested on: Euphorbia heterophylla (EPHHL); assay: Post-emergence biological efficacy
# Protocol: as §1, with “Chenopodium album (CHEAL),” for “Lolium perenne (LOLPE),”, “(IPOHE), Eleusine indica (ELEIN), Lolium perenne (LOLPE), Digitaria sanguinalis (DIGSA),” for “(IPOHE),”, “14 days” for “one day”, “compound. The test plants were then grown under controlled conditions in the glasshouse (at 24/18° C., day/night; 15 hours light; 50% humidity) and watered twice daily. After 13 days the test was evaluated (100=total damage to plant; 0=no damage to plant).” for “compound.”
# [7] = tested on: Ipomoea hederacea (IPOHE); assay: Post-emergence biological efficacy
# Protocol: as §1, with “Chenopodium album (CHEAL),” for “Lolium perenne (LOLPE),”, “(IPOHE), Eleusine indica (ELEIN), Lolium perenne (LOLPE), Digitaria sanguinalis (DIGSA),” for “(IPOHE),”, “14 days” for “one day”, “compound. The test plants were then grown under controlled conditions in the glasshouse (at 24/18° C., day/night; 15 hours light; 50% humidity) and watered twice daily. After 13 days the test was evaluated (100=total damage to plant; 0=no damage to plant).” for “compound.”
# Lolium perenne (LOLPE) [8] = assay: Post-emergence biological efficacy
# Protocol: as §1, with “Chenopodium album (CHEAL),” for “Lolium perenne (LOLPE),”, “(IPOHE), Eleusine indica (ELEIN), Lolium perenne (LOLPE), Digitaria sanguinalis (DIGSA),” for “(IPOHE),”, “14 days” for “one day”, “compound. The test plants were then grown under controlled conditions in the glasshouse (at 24/18° C., day/night; 15 hours light; 50% humidity) and watered twice daily. After 13 days the test was evaluated (100=total damage to plant; 0=no damage to plant).” for “compound.”
# Setaria faberi (SETFA) [9] = assay: Post-emergence biological efficacy
# Protocol: as §1, with “Chenopodium album (CHEAL),” for “Lolium perenne (LOLPE),”, “(IPOHE), Eleusine indica (ELEIN), Lolium perenne (LOLPE), Digitaria sanguinalis (DIGSA),” for “(IPOHE),”, “14 days” for “one day”, “compound. The test plants were then grown under controlled conditions in the glasshouse (at 24/18° C., day/night; 15 hours light; 50% humidity) and watered twice daily. After 13 days the test was evaluated (100=total damage to plant; 0=no damage to plant).” for “compound.”
# [10] = tested on: Echinochloa crus-galli (ECHCG); assay: Pre-emergence biological efficacy
# Protocol: as §1, §2
# [11] = tested on: Euphorbia heterophylla (EPHHL); assay: Pre-emergence biological efficacy
# Protocol: as §1, §2
# [12] = tested on: Ipomoea hederacea (IPOHE); assay: Pre-emergence biological efficacy
# Protocol: as §1, §2
# Lolium perenne (LOLPE) [13] = assay: Pre-emergence biological efficacy
# Protocol: as §1, §2
# Setaria faberi (SETFA) [14] = assay: Pre-emergence biological efficacy
# Protocol: as §1, §2
Compound,pest or weed control at 250 g/ha [1] [%],pest or weed control at 250 g/ha [2] [%],pest or weed control at 250 g/ha [3] [%],pest or weed control at 250 g/ha [4] [%],pest or weed control at 250 g/ha [5] [%],pest or weed control at 250 g/ha (Eleusine indica (ELEIN)) [%],pest or weed control at 250 g/ha [6] [%],pest or weed control at 250 g/ha [7] [%],pest or weed control at 250 g/ha (Lolium perenne (LOLPE) [8]) [%],pest or weed control at 250 g/ha (Setaria faberi (SETFA) [9]) [%],pest or weed control at 250 g/ha [10] [%],pest or weed control at 250 g/ha [11] [%],pest or weed control at 250 g/ha [12] [%],pest or weed control at 250 g/ha (Lolium perenne (LOLPE) [13]) [%],pest or weed control at 250 g/ha (Setaria faberi (SETFA) [14]) [%]
"CCOC(=O)C1(N(C)C(=O)c2cc(-n3c(=O)n(C)c(=S)n(C)c3=O)c(F)cc2Cl)CC1 [Compound 1-252, Ethyl 1-[[2-chloro-5-(3,5-dimethyl-2,6-dioxo-4-thioxo-1,3,5-triazinan-1-yl)-4-fluoro-benzoyl]-methyl-amino]cyclopropanecarboxylate]",100,50,70,0,0,50,40,30,40,0,–,–,–,–,–
"CCOC(=O)C(CC)OC(=O)c1cc(-n2c(=O)n(C)c(=S)n(C)c2=O)c(F)cc1Cl (stereo not shown) [Compound 1-114, 1-Ethoxycarbonylpropyl 2-chloro-5-(3,5-dimethyl-2,6-dioxo-4-thioxo-1,3,5-triazinan-1-yl)-4-fluoro-benzoate]",100,20,70,20,60,20,70,40,30,30,100,40,10,70,10
"CCOC(=O)[C@H]1C[C@@H](OC(=O)c2cc(-n3c(=O)n(C)c(=S)n(C)c3=O)c(F)cc2Cl)C1 [1-981 (cis), (cis)-(3-Ethoxycarbonylcyclobutyl) 2-chloro-5-(3,5-dimethyl-2,6-dioxo-4-thioxo-1,3,5-triazinan-1-yl)-4-fluoro-benzoate]",100,80,100,50,80,50,60,50,70,100,100,50,70,80,50
"CCOC(=O)CC(C)N(C)C(=O)c1cc(-n2c(=O)n(C)c(=S)n(C)c2=O)c(F)cc1Cl (stereo not shown) [Compound 1-405, Ethyl 3-[[2-chloro-5-(3,5-dimethyl-2,6-dioxo-4-thioxo-1,3,5-triazinan-1-yl)-4-fluoro-benzoyl]-methyl-amino]butanoate]",0,60,60,40,10,50,20,40,10,10,0,0,0,0,0
"CCOC(=O)C[C@H](C)OC(=O)c1cc(-n2c(=O)n(C)c(=S)n(C)c2=O)ccc1Cl [Compound 1-360 (S-enantiomer), [(1S)-3-ethoxy-1-methyl-3-oxo-propyl] 2-chloro-5-(3,5-dimethyl-2,6-dioxo-4-thioxo-1,3,5-triazinan-1-yl)benzoate]",80,100,100,100,100,90,90,70,100,100,80,30,20,70,90
"CCOC(=O)COC(=O)c1cc(-n2c(=O)n(C)c(=S)n(C)c2=O)c(F)cc1Cl [Compound 1-12, (2-ethoxy-2-oxo-ethyl]-2-chloro-5-(3,5-dimethyl-2,6-dioxo-4-thioxo-1,3,5-triazinan-1-yl)-4-fluoro-benzoate]",100,100,100,100,100,100,100,100,100,100,90,90,80,90,80
"CCOC(=O)C[C@H](C)OC(=O)c1cc(-n2c(=O)n(C)c(=S)n(C)c2=O)c(F)cc1Cl [Compound 1-369 (S-enantiomer), [(1S)-3-ethoxy-1-methyl-3-oxo-propyl]-2-chloro-5-(3,5-dimethyl-2,6-dioxo-4-thioxo-1,3,5-triazinan-1-yl)-4-fluoro-benzoate]",100,100,100,100,100,100,100,90,100,100,100,90,50,90,100
"COC(=O)CNC(=O)c1cc(-n2c(=O)n(C)c(=S)n(C)c2=O)c(F)cc1Cl [Compound 1-35, Methyl 2-[[2-chloro-5-(3,5-dimethyl-2,6-dioxo-4-thioxo-1,3,5-triazinan-1-yl)-4-fluoro-benzoyl]amino]acetate]",30,30,20,40,40,40,70,50,10,40,80,40,0,70,10
"CCOC(=O)C1(NC(=O)c2cc(-n3c(=O)n(C)c(=S)n(C)c3=O)c(F)cc2Cl)CC1 [Compound 1-240, ethyl 1-[[2-chloro-5-(3,5-dimethyl-2,6-dioxo-4-thioxo-1,3,5-triazinan-1-yl)-4-fluoro-benzoyl]amino]cyclopropanecarboxylate]",100,100,100,70,30,100,100,60,90,80,30,100,10,30,70
